In patent US10618903B2, “Heteroaryl substituted aminopyridine compounds” (BRISTOL-MYERS SQUIBB COMPANY, priority 2015, dated 2020):

Columns and labels:
[1] = target: IRAK4 (Homo sapiens (Human), UniProt Q9NWZ3); test: IRAK4 Inhibition Assay; assay type: biochemical; conditions: ATP 500 μM; IRAK4 0.6 nM
Method in brief: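 Enzyme 0.6 nM, ATP 500 μM, FL-peptide 1.5 μM, DMSO 1.6%; HEPES pH 7.2/MgCl2/Brij 35/DTT buffer. RT, 60 min, EDTA stop. Mobility-shift product/substrate ratio; % inhib vs no-enzyme and vehicle controls.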

[2] = Caco Permeability Assay; assay type: in vitro ADME; conditions: human, Caco-2, Caco-2 cells, 3 μM compound
Description: Thirteen to 27 days prior to assay, Caco-2 cells were seeded onto collagen-coated polycarbonate filter membranes in 24-well transwell plates at a density of 1.45×10^5 cells/cm^2, approximately 4.8×10^4 cells per well. The cells were grown in a culture medium consisting of DMEM supplemented with 10% fetal bovine serum, 10 mM HEPES, 1% nonessential amino acids, 2 mM L-glutamine, 100 U/mL penicillin-G, and 100 μg/mL streptomycin. The culture medium was replaced every 3 days and the cells were maintained at 37° C. in a 95% relative humidity and 5% CO2 atmosphere. The cells were evaluated for tight junction formation just prior to assay. The test compound was solubilized to 10 mM in 100% DMSO and diluted to 3 μM in assay buffer. Permeability studies were initiated by adding 200 μL assay buffer plus/minus compound to the apical transwell compartment and 600 μL assay buffer plus/minus compound to the basolateral compartment of the 24-well transwell low-binding cluster plate. For apical-to-basolateral (A to B) permeability (absorptive direction), buffer containing compound was placed in the apical compartment (donor wells), while buffer alone was placed in the corresponding basolateral compartments (receiver wells). For basolateral-to-apical (B to A) permeability (secretive direction), buffer containing compound was placed in the basolateral compartment (donor wells), while buffer alone was placed in the corresponding apical compartments (receiver wells). Transwells were then incubated for 2 hours at 37° C. in a 95% relative humidity and 5% CO2 atmosphere with gentle agitation. Following incubation, 100 μL was removed from each apical and basolateral compartment and transferred to 96-well low binding plates that had been previously loaded with 100 µL/well of acetonitrile containing 250 nM propranolol, 250 nM diclofenac, and 500 nM tolbutamide as internal standards. The samples were subsequently analyzed by LC-MS/MS to determine concentrations of compound.

[3] = tested on: IL-6 levels in human whole blood stimulated with a TLR2 agonist; test: IRAK4 Whole Blood Assay (lipoteichoic acid/TLR2-stimulated IL-6); assay type: cell-based; conditions: lipoteichoic acid 10 μg/mL, IL-6 readout
Method in brief: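 ACD-A-anticoagulated human whole blood was preincubated with compounds for 60 min at 37 °C under 5% CO2. It was then stimulated with 10 μg/mL lipoteichoic acid (final) in RPMI for 5 h. IL-6 in plasma supernatants was measured by flow cytometry bead assay.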

Chain of IRAK4 (Q9NWZ3 whole entry): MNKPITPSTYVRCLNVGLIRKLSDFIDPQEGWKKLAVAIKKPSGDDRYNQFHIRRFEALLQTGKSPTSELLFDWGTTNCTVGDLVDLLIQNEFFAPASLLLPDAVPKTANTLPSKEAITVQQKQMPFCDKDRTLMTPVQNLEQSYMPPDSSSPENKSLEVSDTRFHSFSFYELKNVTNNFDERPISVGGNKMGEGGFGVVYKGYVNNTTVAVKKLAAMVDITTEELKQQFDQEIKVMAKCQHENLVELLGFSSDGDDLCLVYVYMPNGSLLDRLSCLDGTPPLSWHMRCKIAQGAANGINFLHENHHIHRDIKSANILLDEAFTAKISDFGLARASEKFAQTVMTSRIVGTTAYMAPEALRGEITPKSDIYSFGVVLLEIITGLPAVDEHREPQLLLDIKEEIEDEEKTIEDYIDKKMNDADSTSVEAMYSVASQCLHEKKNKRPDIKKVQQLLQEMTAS

IC50 [1] [µM]	Papp at 2 h, 3 µM [2] [×10⁻⁶ cm/s]	EC50 ([3]; Homo sapiens) [µM]	EC50 [3] [µM]	SMILES
0.007	5.3	2.73	–	CC(C)(O)[C@H](F)CNC(=O)c1cnc(-c2cnn3cc(Cl)cnc23)cc1N[C@@H]1COC[C@H]1F [Example 44, 6-(6-chloropyrazolo[1,5-a]pyrimidin-3-yl)-N—((R)-2-fluoro-3-hydroxy-3-methylbutyl)-4-(((3R,4S)-4-fluorotetrahydrofuran-3-yl)amino)nicotinamide]
0.008	17.3	0.35	–	CC(C)(O)CCNC(=O)c1cnc(-c2cnn3cc(Cl)cnc23)cc1NC1COC1 [Example 47, 6-(6-chloropyrazolo[1,5-a]pyrimidin-3-yl)-N-(3-hydroxy-3-methylbutyl)-4-(oxetan-3-ylamino)nicotinamide]
0.001	2.6	0.3	–	CC(C)(O)[C@H](F)CNC(=O)c1cnc(-c2cnn3cc(Cl)cnc23)cc1Nc1cnn(C2COC2)c1 [Example 48, (R)-6-(6-chloropyrazolo[1,5-a]pyrimidin-3-yl)-N-(2-fluoro-3-hydroxy-3-methylbutyl)-4-((1-(oxetan-3-yl)-1H-pyrazol-4-yl)amino)nicotinamide]
0.018	< 1.5	2.92	–	CC(C)Nc1cc(-c2cnn3cc(Cl)cnc23)ncc1C(=O)N[C@H]1CC[C@H](NC(=O)[C@H](C)O)CC1 [Example 49, 6-(6-chloropyrazolo[1,5-a]pyrimidin-3-yl)-N-((1S,4r)-4-((S)-2-hydroxypropanamido)cyclohexyl)-4-(isopropylamino)nicotinamide]
0.002	3	0.69	–	CC(C)(O)[C@H]1CC[C@H](Nc2cc(-c3cnn4cc(Cl)cnc34)ncc2C(=O)NC[C@@H](F)C(C)(C)O)C1 [Example 50, 6-(6-chloropyrazolo[1,5-a]pyrimidin-3-yl)-N—((R)-2-fluoro-3-hydroxy-3-methylbutyl)-4-(((1S,3S)-3-(2-hydroxypropan-2-yl)cyclopentyl)amino)nicotinamide]
0.003	< 1.5	0.28	–	CC(C)(O)[C@H](F)CNC(=O)c1cnc(-c2cnn3cc(Cl)cnc23)cc1Nc1cnn(C2CCOCC2)c1 [Example 52, (R)-6-(6-chloropyrazolo[1,5-a]pyrimidin-3-yl)-N-(2-fluoro-3-hydroxy-3-methylbutyl)-4-((1-(tetrahydro-2H-pyran-4-yl)-1H-pyrazol-4-yl)amino)nicotinamide]
0.005	14.3	0.36	–	CCNc1cc(-c2cnn3cc(Cl)cnc23)ncc1C(=O)NC[C@@H](F)C(C)(C)O [Example 56, (R)-6-(6-chloropyrazolo[1,5-a]pyrimidin-3-yl)-4-(ethylamino)-N-(2-fluoro-3-hydroxy-3-methylbutyl) nicotinamide]
0.014	< 1.5	0.35	–	CC(C)(O)CNc1cc(-c2cnn3cc(Cl)cnc23)ncc1C(=O)NC[C@@H](F)C(C)(C)O [Example 58, (R)-6-(6-chloropyrazolo[1,5-a]pyrimidin-3-yl)-N-(2-fluoro-3-hydroxy-3-methylbutyl)-4-((2-hydroxy-2-methylpropyl)amino)nicotinamide]
0.004	27	4.93	–	CC(C)(O)[C@H](F)CNC(=O)c1cnc(-c2cnn3cc(Cl)cnc23)cc1NC1CCC1 [Example 60, (R)-6-(6-chloropyrazolo[1,5-a]pyrimidin-3-yl)-4-(cyclobutylamino)-N-(2-fluoro-3-hydroxy-3-methylbutyl)nicotinamide]
0.006	19.7	1.82	–	C[C@H](F)CNc1cc(-c2cnn3cc(Cl)cnc23)ncc1C(=O)NC[C@@H](F)C(C)(C)O [Example 61, 6-(6-chloropyrazolo[1,5-a]pyrimidin-3-yl)-N—((R)-2-fluoro-3-hydroxy-3-methylbutyl)-4-(((S)-2-fluoropropyl)amino)nicotinamide]
0.004	12.6	3.47	–	CC(C)(O)[C@H](F)CNC(=O)c1cnc(-c2cnn3cc(Cl)cnc23)cc1NC1CC(F)(F)C1 [Example 65, (R)-6-(6-chloropyrazolo[1,5-a]pyrimidin-3-yl)-4-((3,3-difluorocyclobutyl)amino)-N-(2-fluoro-3-hydroxy-3-methylbutyl)nicotinamide]
0.002	18.4	3.08	–	CC(C)(O)[C@H](F)CNC(=O)c1cnc(-c2cnn3cc(Cl)cnc23)cc1NC1CCCC1 [Example 67, (R)-6-(6-chloropyrazolo[1,5-a]pyrimidin-3-yl)-4-(cyclopentylamino)-N-(2-fluoro-3-hydroxy-3-methylbutyl)nicotinamide]
0.002	< 1.5	0.42	–	CC(C)(O)[C@H](F)CNC(=O)c1cnc(-c2cnn3cc(Cl)cnc23)cc1NC1CCN(S(C)(=O)=O)CC1 [Example 68, (R)-6-(6-chloropyrazolo[1,5-a]pyrimidin-3-yl)-N-(2-fluoro-3-hydroxy-3-methylbutyl)-4-((1-(methylsulfonyl)piperidin-4-yl)amino) nicotinamide]
0.003	7.3	0.84	–	CC[C@@H](C)Nc1cc(-c2cnn3cc(Cl)cnc23)ncc1C(=O)NC[C@@H](F)C(C)(C)O [Example 70, 4-(((R)-sec-butyl)amino)-6-(6-chloropyrazolo[1,5-a]pyrimidin-3-yl)-N—((R)-2-fluoro-3-hydroxy-3-methylbutyl)nicotinamide]
0.001	1.7	0.07	–	CC(C)(O)[C@H](F)CNC(=O)c1cnc(-c2cnn3cc(Cl)cnc23)cc1Nc1cnn(CC(F)F)c1 [Example 71, (R)-6-(6-chloropyrazolo[1,5-a]pyrimidin-3-yl)-4-((1-(2,2-difluoroethyl)-1H-pyrazol-4-yl)amino)-N-(2-fluoro-3-hydroxy-3-methylbutyl)nicotinamide]
0.002	< 1.5	0.71	–	CC(C)(O)[C@H](F)CNC(=O)c1cnc(-c2cnn3cc(Cl)cnc23)cc1NC12CCC(O)(CC1)C2 [Example 73, (R)-6-(6-chloropyrazolo[1,5-a]pyrimidin-3-yl)-N-(2-fluoro-3-hydroxy-3-methylbutyl)-4-((4-hydroxybicyclo[2.2.1]heptan-1-yl)amino)nicotinamide]
0.006	< 1.5	0.58	–	CC(O)CCNc1cc(-c2cnn3cc(Cl)cnc23)ncc1C(=O)NC[C@@H](F)C(C)(C)O (stereo partly drawn) [Example 82, 6-(6-chloropyrazolo[1,5-a]pyrimidin-3-yl)-N—((R)-2-fluoro-3-hydroxy-3-methylbutyl)-4-((3-hydroxybutyl)amino)nicotinamide]
0.001	15.9	–	0.81	CC(C)(O)[C@H](F)CNC(=O)c1cnc(-c2cnn3cc(Cl)cnc23)cc1NC1CCC(F)C1 (stereo partly drawn) [Example 83, 6-(6-chloropyrazolo[1,5-a]pyrimidin-3-yl)-N—((R)-2-fluoro-3-hydroxy-3-methylbutyl)-4-((3-fluorocyclopentyl)amino)nicotinamide]
0.002	5.6	0.25	–	CC(C)Nc1cc(-c2cnn3cc(C#N)cnc23)ncc1C(=O)NC[C@@H](F)C(C)(C)O [Example 87, (R)-6-(6-cyanopyrazolo[1,5-a]pyrimidin-3-yl)-N-(2-fluoro-3-hydroxy-3-methylbutyl)-4-(isopropylamino)nicotinamide]
0.004	2.8	0.4	–	CC(C)(O)[C@H](F)CNC(=O)c1cnc(-c2cnn3cc(C#N)cnc23)cc1NC1CCOCC1 [Example 90, (R)-6-(6-cyanopyrazolo[1,5-a]pyrimidin-3-yl)-N-(2-fluoro-3-hydroxy-3-methylbutyl)-4-((tetrahydro-2H-pyran-4-yl)amino)nicotinamide]
0.02	7.4	0.72	–	CC(C)(O)[C@H](F)CNC(=O)c1cnc(-c2cnn3cc(C#N)cnc23)cc1NC1CC1 [Example 92, (R)-6-(6-cyanopyrazolo[1,5-a]pyrimidin-3-yl)-4-(cyclopropylamino)-N-(2-fluoro-3-hydroxy-3-methylbutyl) nicotinamide]
